Measurements as given in patent US11395847B2, “Acylated GLP-1/GLP-2 dual agonists” (Zealand Pharma A/S, priority 2016, dated 2022).
Read-outs that look alike come from different tables or passages of the source. *1 amine or outer side, *2 acyl side, *3 side chain or, on linkers, in order; H or OH if unused. Where a SMILES comes first, the peptide text is derived from it. Side-chain parts run from the residue outwards. [ ]: non-standard residue; d: D form. The star is where a group is joined. C20 diacid = O=C(O)CCCCCCCCCCCCCCCCCCC(=O)*; γGlu = O=C(O)[C@H](CCC(=O)[*:2])N[*:1]; AEEA = NCCOCCOCC(=O)O; Aib = CC(C)(N)C(=O)O

Biological target: T1, human GLP-2 receptor (Homo sapiens, UniProt O95838, D470N)
T1 construct: expressed in transfected cells
T1 sequence (O95838 1-553 D470N): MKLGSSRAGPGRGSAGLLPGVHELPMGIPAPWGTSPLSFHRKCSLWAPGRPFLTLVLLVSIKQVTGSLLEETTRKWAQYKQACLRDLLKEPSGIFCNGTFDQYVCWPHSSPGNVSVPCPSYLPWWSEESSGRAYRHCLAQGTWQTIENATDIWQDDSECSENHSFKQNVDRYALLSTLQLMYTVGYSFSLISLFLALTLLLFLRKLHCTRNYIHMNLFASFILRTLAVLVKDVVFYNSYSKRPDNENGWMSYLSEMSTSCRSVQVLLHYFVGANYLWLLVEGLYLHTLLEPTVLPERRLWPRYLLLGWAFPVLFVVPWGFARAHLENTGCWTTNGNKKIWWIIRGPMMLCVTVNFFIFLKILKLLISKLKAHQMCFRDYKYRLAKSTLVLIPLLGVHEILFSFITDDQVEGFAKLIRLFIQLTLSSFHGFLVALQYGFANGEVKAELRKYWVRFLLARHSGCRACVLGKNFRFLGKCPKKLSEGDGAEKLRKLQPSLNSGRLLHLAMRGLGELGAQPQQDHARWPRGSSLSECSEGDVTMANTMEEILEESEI
Experiment: GLP-2 receptor potency assay (cAMP ALPHASCREEN, HEK293 cells stably expressing GLP-2 R)
Format: cell-based
Source text: One useful in vitro assay for measuring GLP-1 and GLP-2 receptor activity is quantitation of cAMP, i.e. 3′-5′-cyclic adenosine monophosphate, which is a second messenger essential in many biological processes, and one of the most ubiquitous mechanisms for regulating cellular functions.
For subcloning into a mammalian expression vector, primers for subcloning were obtained from DNA-Technology, Risskov, Denmark. The 5′ and 3′ primers used for the PCR reaction include terminal restriction sites for cloning and the context of the 5′ primer is modified to a Kozak consensus without changing the sequence of the product encoded by the ORF. […] The generated PCR product was purified using GFX PCR and Gel band purification kit, digested with restriction enzymes and cloned into the mammalian expression vector using Rapid DNA Ligation Kit. Ligation reaction was transformed to XL10 Gold Ultracompetent cells and colonies were picked for DNA production using ENDOFREE® Plasmid maxi kit. Subsequent sequence analysis was conducted by MWG Eurofins, Germany.
HEK293 cells were transfected using the LIPOFECTAMINE® PLUS transfection method. The day before transfection, HEK293 cells were seeded in two T75 flasks at a density of 2×10^6 cells/T75 flask in cell culturing medium without antibiotics. On the day of transfection, cells were washed with 1× DPBS and medium was replaced with OPTI-MEM© to a volume of 5 mL/T75 flask before addition of LIPOFECTAMINE®-plasmid complexes were added gently and drop wise to the cells in T75 flasks and replaced with growth medium after 3 hours and again to growth medium supplemented with 500 μg/mL G418 after 24 hours. Following 4 weeks in G418 selection, clones were picked and tested in a functional GLP-2 receptor potency assay as described below.
The cAMP ALPHASCREEN® assay from Perkin Elmer was used to quantitate the cAMP response to activation of the GLP1 and GLP2 receptor, respectively. […] Data from test compounds eliciting an increase in the intracellular level of cAMP were normalized relative to the positive and negative control (vehicle) to calculate the EC50 and maximal response from the concentration response curve.

[1] = cAMP response, HEK293 cells expressing human GLP-2 R, read-out: EC50 GLP-2

CC[C@H](C)[C@H](NC(=O)[C@H](Cc1ccccc1)NC(=O)[C@H](CC(=O)O)NC(=O)[C@H](CCCNC(=N)N)NC(=O)[C@H](C)NC(=O)[C@H](C)NC(=O)[C@H](CCCCN)NC(=O)[C@H](CCCCNC(=O)COCCOCCNC(=O)[C@H](CCCCN)NC(=O)[C@H](CCC(=O)O)NC(=O)[C@H](CCCCN)NC(=O)CC[C@H](NC(=O)CCCCCCCCCCCCCCCCCCC(=O)O)C(=O)O)NC(=O)[C@H](CC(=O)O)NC(=O)[C@H](CC(C)C)NC(=O)[C@@H](NC(=O)[C@@H](NC(=O)[C@H](C)NC(=O)[C@H](CC(C)C)NC(=O)[C@H](CCC(=O)O)NC(=O)[C@H](CO)NC(=O)[C@@H](NC(=O)[C@H](Cc1ccccc1)NC(=O)[C@H](CO)NC(=O)CNC(=O)[C@H](CCC(=O)O)NC(=O)C(C)(C)NC(=O)[C@@H](N)Cc1c[nH]cn1)[C@@H](C)O)[C@@H](C)O)[C@@H](C)CC)C(=O)N[C@@H](C)C(=O)N[C@@H](Cc1c[nH]c2ccccc12)C(=O)N[C@@H](CC(C)C)C(=O)N[C@H](C(=O)N[C@@H](CCC(=O)O)C(=O)N[C@@H](Cc1c[nH]cn1)C(=O)N[C@@H](CCCCN)C(=O)N[C@H](C(=O)N[C@H](C(=O)N[C@@H](CC(=O)O)C(=O)O)[C@@H](C)O)[C@@H](C)CC)[C@@H](C)CC [Compound 59] (HELM PEPTIDE1{H.[Aib].E.G.S.F.T.S.E.L.A.T.I.L.D.K.K.A.A.R.D.F.I.A.W.L.I.E.H.K.I.T.D}|PEPTIDE2{[O=C(O)CCCCCCCCCCCCCCCCCCC(=O)[*:2]].[gGlu].K.E.K.[O=C(COCCOCCN[*:1])[*:2]]}$PEPTIDE1,PEPTIDE2,16:R3-6:R2$$$V2.0)
EC50 [1]: 0.11 nM

CC[C@H](C)[C@H](NC(=O)[C@H](Cc1ccccc1)NC(=O)[C@H](CC(=O)O)NC(=O)[C@H](CCCNC(=N)N)NC(=O)[C@H](C)NC(=O)[C@H](C)NC(=O)[C@H](CCC(=O)O)NC(=O)[C@H](CCCCNC(=O)CC[C@H](NC(=O)CCCCCCCCCCCCCCCCC(=O)O)C(=O)O)NC(=O)[C@H](CC(=O)O)NC(=O)[C@H](CC(C)C)NC(=O)[C@@H](NC(=O)[C@@H](NC(=O)[C@H](C)NC(=O)[C@H](CC(C)C)NC(=O)[C@H](CCC(=O)O)NC(=O)[C@H](CO)NC(=O)[C@@H](NC(=O)[C@H](Cc1ccccc1)NC(=O)[C@@H](NC(=O)CNC(=O)[C@H](CCC(=O)O)NC(=O)C(C)(C)NC(=O)[C@@H](N)Cc1c[nH]cn1)[C@@H](C)O)[C@@H](C)O)[C@@H](C)O)[C@@H](C)CC)C(=O)N[C@@H](C)C(=O)N[C@@H](Cc1c[nH]c2ccccc12)C(=O)N[C@@H](CC(C)C)C(=O)N[C@H](C(=O)N[C@@H](CCC(=O)O)C(=O)N[C@@H](Cc1c[nH]cn1)C(=O)N[C@@H](CCCCN)C(=O)N[C@H](C(=O)N[C@H](C(=O)N[C@@H](CC(=O)O)C(=O)O)[C@@H](C)O)[C@@H](C)CC)[C@@H](C)CC [Compound 3] (HELM PEPTIDE1{H.[Aib].E.G.T.F.T.S.E.L.A.T.I.L.D.K.E.A.A.R.D.F.I.A.W.L.I.E.H.K.I.T.D}|PEPTIDE2{[O=C(O)CCCCCCCCCCCCCCCCC(=O)[*:2]].[gGlu]}$PEPTIDE1,PEPTIDE2,16:R3-2:R2$$$V2.0)
EC50 [1]: 0.33 nM

CC[C@H](C)[C@H](NC(=O)[C@H](Cc1ccccc1)NC(=O)[C@H](CC(=O)O)NC(=O)[C@H](CCCNC(=N)N)NC(=O)[C@H](C)NC(=O)[C@H](C)NC(=O)[C@H](CCCCN)NC(=O)[C@H](CCCCNC(=O)CC[C@H](NC(=O)CCCCCCCCCCCCCCCCC(=O)O)C(=O)O)NC(=O)[C@H](CC(=O)O)NC(=O)[C@H](CC(C)C)NC(=O)[C@@H](NC(=O)[C@@H](NC(=O)[C@H](C)NC(=O)[C@H](CC(C)C)NC(=O)[C@H](CCC(=O)O)NC(=O)[C@H](CO)NC(=O)[C@H](CO)NC(=O)[C@H](Cc1ccccc1)NC(=O)[C@@H](NC(=O)CNC(=O)[C@H](CCC(=O)O)NC(=O)C(C)(C)NC(=O)[C@@H](N)Cc1c[nH]cn1)[C@@H](C)O)[C@@H](C)O)[C@@H](C)CC)C(=O)N[C@@H](C)C(=O)N[C@@H](Cc1c[nH]c2ccccc12)C(=O)N[C@@H](CC(C)C)C(=O)N[C@H](C(=O)N[C@@H](CCC(=O)O)C(=O)N[C@@H](Cc1c[nH]cn1)C(=O)N[C@@H](CCCCN)C(=O)N[C@H](C(=O)N[C@H](C(=O)N[C@@H](CC(=O)O)C(=O)O)[C@@H](C)O)[C@@H](C)CC)[C@@H](C)CC [Compound 4] (HELM PEPTIDE1{H.[Aib].E.G.T.F.S.S.E.L.A.T.I.L.D.K.K.A.A.R.D.F.I.A.W.L.I.E.H.K.I.T.D}|PEPTIDE2{[O=C(O)CCCCCCCCCCCCCCCCC(=O)[*:2]].[gGlu]}$PEPTIDE1,PEPTIDE2,16:R3-2:R2$$$V2.0)
EC50: 0.087 nM

CC[C@H](C)[C@H](NC(=O)[C@H](Cc1ccccc1)NC(=O)[C@H](CC(=O)O)NC(=O)[C@H](CCCCNC(=O)COCCOCCNC(=O)COCCOCCNC(=O)CC[C@H](NC(=O)CCCCCCCCCCCCCCCCCCC(=O)O)C(=O)O)NC(=O)[C@H](C)NC(=O)[C@H](C)NC(=O)[C@H](CCC(N)=O)NC(=O)[C@H](CCC(=O)O)NC(=O)[C@H](CC(=O)O)NC(=O)[C@H](CC(C)C)NC(=O)[C@@H](NC(=O)[C@@H](NC(=O)[C@H](C)NC(=O)[C@H](CC(C)C)NC(=O)[C@H](CCC(=O)O)NC(=O)[C@H](CO)NC(=O)[C@@H](NC(=O)[C@H](Cc1ccccc1)NC(=O)[C@@H](NC(=O)CNC(=O)[C@H](CCC(=O)O)NC(=O)C(C)(C)NC(=O)[C@@H](N)Cc1c[nH]cn1)[C@@H](C)O)[C@@H](C)O)[C@@H](C)O)[C@@H](C)CC)C(=O)N[C@@H](C)C(=O)N[C@@H](Cc1c[nH]c2ccccc12)C(=O)N[C@@H](CC(C)C)C(=O)N[C@H](C(=O)N[C@@H](CCC(=O)O)C(=O)N[C@@H](Cc1c[nH]cn1)C(=O)N[C@@H](CCCCN)C(=O)N[C@H](C(=O)N[C@H](C(=O)N[C@@H](CC(=O)O)C(=O)O)[C@@H](C)O)[C@@H](C)CC)[C@@H](C)CC [Compound 46] (H-H[Aib]EGTFTSELATILDEQAAK([AEEA-AEEA-γGlu-C20 diacid])DFIAWLIEHKITD-OH)
EC50 [1]: 0.38 nM

CC[C@H](C)[C@H](NC(=O)[C@H](Cc1ccccc1)NC(=O)[C@H](CC(=O)O)NC(=O)[C@H](CCCNC(=N)N)NC(=O)[C@H](C)NC(=O)[C@H](C)NC(=O)[C@H](CCCCN)NC(=O)[C@H](CCCCNC(=O)COCCOCCNC(=O)COCCOCCNC(=O)CC[C@H](NC(=O)CCCCCCCCCCCCCCCCCCC(=O)O)C(=O)O)NC(=O)[C@H](CC(=O)O)NC(=O)[C@H](CC(C)C)NC(=O)[C@@H](NC(=O)[C@@H](NC(=O)[C@H](C)NC(=O)[C@H](CC(C)C)NC(=O)[C@H](CCC(=O)O)NC(=O)[C@H](CO)NC(=O)[C@@H](NC(=O)[C@H](Cc1ccccc1)NC(=O)[C@H](CO)NC(=O)CNC(=O)[C@H](CCC(=O)O)NC(=O)C(C)(C)NC(=O)[C@@H](N)Cc1c[nH]cn1)[C@@H](C)O)[C@@H](C)O)[C@@H](C)CC)C(=O)N[C@@H](C)C(=O)N[C@@H](Cc1c[nH]c2ccccc12)C(=O)N[C@@H](CC(C)C)C(=O)N[C@H](C(=O)N[C@@H](CCC(=O)O)C(=O)N[C@@H](Cc1c[nH]cn1)C(=O)N[C@@H](CCCCN)C(=O)N[C@H](C(=O)N[C@H](C(=O)N[C@@H](CC(=O)O)C(=O)O)[C@@H](C)O)[C@@H](C)CC)[C@@H](C)CC [Compound 43] (H-H[Aib]EGSFTSELATILDK([AEEA-AEEA-γGlu-C20 diacid])KAARDFIAWLIEHKITD-OH)
EC50 [1]: 0.15 nM
